Legend:
[1] = tested on: mTOR/p70S6K signaling pathway; test: Western blot analysis of mTOR/p70S6K signaling pathway in Jurkat T cells; type: cell-based, human; settings: 10 ng/ml IL2, 100 nM, 24 hours, FIG. 20A
Protocol: To examine the biological activities of these compounds, western blot analysis of mTOR/p70S6K signaling pathway and T-cell proliferation assay were performed with human Jurkat T cells. T-cell viability and proliferation were assessed using alamarBlue® cell viability reagent (Invitrogen).
For the western blot analysis of mTOR/p70S6K signaling pathway, briefly, Jurkat T cell were seeded into 6-cm cell culture dish in RPM11640 medium containing 10% fetal bovine serum.
Insoluble material was collected by centrifugation at 14,000×g for 20 minutes at 4° C. The cell lysate samples were separated on 10% SDS-PAGE gels and transferred to a PVDF membrane (Millipore). The membrane blots were blocked in PBS containing 5% BSA for 1 hour at room temperature, and incubated with primary antibodies, anti-phospho-p70S6K antibody (Cell Signaling Technology, Danvers, USA) and anti-p70S6K antibody (Cell Signaling Technology), overnight at 4° C. […] Then the membranes were washed three times with TBST, and immunoreacted bands were detected with ECL™ western blotting detection reagents (Millipore) and exposed on Fujifilm (Tokyo, Japan). Relative quantification of ECL signals on X-ray films were analyzed by using Image J (NIH, Bethesda, Md., USA).

[2] = tested on: scFv specific for CTLA-4; test: Western blot of recombinant CTLA-4 with scFv specific for CTLA-4; type: binding; settings: scFv specific for CTLA-4 1 μg/ml; FIG. 14C
Protocol: Recombinant CTLA-4 protein was analyzed and detected using western blotting. Briefly, 50 μl of the purified CTLA-4 protein was electrophoresed on the 12% SDS-PAGE gel (lane 2) and electroblotted over to a PDVF membrane. The protein (CTLA-4)-IgG1Fc-(scFv α HLA-A1) was used as a positive control (lane 1). After blocking with 5% BSA in TBST at room temperature for 1 hour, the diluted scFv specific for CTLA-4 (1 μg/ml) was added and incubated with the membrane overnight at 4° C. with gentle shaking. The membrane was rinsed and washed 3 times with TBST. The diluted HRP-conjugated protein L (1:5000) was added and incubated with the membrane at room temperature for 1 hour, and the rinse and wash cycle was repeated with TBST for 3 times. The membrane was then incubated with HRP substrate solution for 20 minutes before being exposed to the photographic film.

[3] = biological target: T1, PD1-IgG1.Fc (Homo sapiens, UniProt Q15116); test: ELISA of recombinant PD-L1 binding to PD1-IgG1.Fc; settings: plate coated with PD-L1 50 μg/ml; PD1-IgG1.Fc 50 μg/ml; FIG. 14D
T1 construct: made in house; host or cells: Expi293F
T1 sequence (Q15116 with tags, fused parts or gaps): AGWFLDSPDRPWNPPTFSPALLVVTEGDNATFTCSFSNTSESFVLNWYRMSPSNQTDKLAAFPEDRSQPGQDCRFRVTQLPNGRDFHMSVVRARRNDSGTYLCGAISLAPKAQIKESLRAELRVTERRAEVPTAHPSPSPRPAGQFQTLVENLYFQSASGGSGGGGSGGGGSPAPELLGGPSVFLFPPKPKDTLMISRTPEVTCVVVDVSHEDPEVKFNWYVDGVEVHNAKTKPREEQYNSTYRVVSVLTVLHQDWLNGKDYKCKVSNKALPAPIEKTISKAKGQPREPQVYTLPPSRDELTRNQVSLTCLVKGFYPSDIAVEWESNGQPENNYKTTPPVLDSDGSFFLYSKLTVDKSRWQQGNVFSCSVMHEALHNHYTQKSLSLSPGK
Protocol: Binding activity of recombinant PD-L1 protein was assayed with ELISA using a 96-well plate coated with recombinant PD-L1 protein in 50 μg/ml concentration, 100 μl per well. After the excess PD-L1 was washed off and the solid phase blocked, 100 μl per well of PD1-IgG1.Fc at 50 μg/ml was added. The bound PD1-IgG1.Fc was determined by HRP-conjugated goat anti-human IgG.Fc. 50 μl of TMB substrate was added for color development. The reaction was stopped by 50 μl of 1M HCl. Absorbance at 450 nm was measured with a plate reader. Each bar represents the mean OD450 value of duplicate samples.

[4] = biological target: T2, human HLA-A2 (Homo sapiens, UniProt P04439); test: Single colony ELISA of phage-displayed scFvs specific for human HLA-A2; type: binding; settings: HLA-A2 0.5 μg/100 μl per well; FIG. 16B
T2 construct: made in house; host or cells: Expi293F
Protocol: E. coli strain ER2738 infected with single-clonal phages each harboring a selected scFv gene in its phagemid was grown in the mid-log phase in 2YT broth (16 g/l tryptone, 10 g/l yeast extract, 5 g/l NaCl, pH 7.0) with 100 μg/ml ampicillin in deep well at 37° C. with shaking. After the broth reached an OD600 of 1.0, IPTG was added to a final concentration of 1 μg/ml. The plates were incubated at 37° C. overnight under rigorously shaking. Thereafter, the plates were centrifuged at 4,000 g for 15 minutes at 4° C.
For soluble scFv binding test, ELISA was carried out. Briefly, 96-well Maxisorp 96-well plate (Nunc) was coated with human HLA-A2 (0.5 μg/100 μl PBS per well) or two negative control antigens, human heat shock protein 70 (Hsp 70) and RSV-IgG1.Fc fusion protein (prepared by our laboratory), for 18 hours with shaking at 4° C. After being treated with 300 μl of blocking buffer for 1 hour, 100 μl of secreted scFv in the supernatant was mixed with 100 μl of blocking buffer and then added to the coated plate for another 1 hour. Goat anti-E-tag antibody (conjugated with HRP, 1:4000, Cat. No. AB19400, Abcam) was added to the plate for 1 hour. TMB substrate (50 μl per well) was added to the wells and the absorbance at 450 nm was measured after reactions were stopped by adding 1N HCl (50 μl per well).

[5] = biological target: T3, recombinant HLA-A1 (Homo sapiens, UniProt P04439); test: ELISA of tetrazine-conjugated scFv specific for human HLA-A1; type: binding; settings: FIG. 17B
T3 construct: made in house; host or cells: Expi293F
From the text: The purity of tetrazine-conjugated scFv specific for human HLA-A1 was identified through Coomassie blue staining of 12% SDS-PAGE. FIGS. 17A and 17B show, respectively, the mass spectrometric and ELISA analysis of tetrazine-conjugated scFv specific for human HLA-A1, in which unmodified scFv specific for human HLA-A1 was used as a positive control.

CO[C@H]1C[C@@H]2CC[C@@H](C)[C@@](O)(O2)C(=O)C(=O)N2CCCC[C@H]2C(=O)O[C@H]([C@H](C)C[C@@H]2CC[C@@H](OC(=O)CN)[C@H](OC)C2)CC(=O)[C@H](C)/C=C(\C)[C@@H](O)[C@@H](OC)C(=O)[C@H](C)C[C@H](C)/C=C/C=C/C=C/1C [sirolimus-Gly, Sirolimus monoglycine]
mTOR/p70S6K signally pathway in the treated T cells, compared with unmodified sirolimus [1]: blocked
phosphorylated level of p70S6K [1]: decreased

CO[C@H]1C[C@@H]2CC[C@@H](C)[C@@](O)(O2)C(=O)C(=O)N2CCCC[C@H]2C(=O)O[C@H]([C@H](C)C[C@@H]2CC[C@@H](OC(=O)CNC(=O)CN)[C@H](OC)C2)CC(=O)[C@H](C)/C=C(\C)[C@@H](O)[C@@H](OC)C(=O)[C@H](C)C[C@H](C)/C=C/C=C/C=C/1C [sirolimus-diGly, sirolimus di-glycine]
mTOR/p70S6K signally pathway in the treated T cells, compared with unmodified sirolimus [1]: blocked
phosphorylated level of p70S6K [1]: decreased

recombinant human CTLA-4: recombinant human CTLA-4 (SEQ ID NO: 30) with GGGGSGGGGS linker and terminal cysteine
binding by the scFv specific for CTLA-4 (western blot) [2]: specifically bound

recombinant human PD-L1: recombinant human PD-L1 (SEQ ID NO: 31) with GGGGSGGGGS linker and terminal cysteine
binding to recombinant PD1-IgG1.Fc (ELISA) [3]: specifically bound

B1: 3E10: phage-displayed human scFv clone specific for human HLA-A2, SEQ ID NO: 34 (protein)
scFv: DIQMTQSPSSLSASVGDRVTITCRASQDVFFFVAWYQQKPGKAPKLLIYGPPGLYSGVPSRFSGSGSGTDFTLTISSLQPEDFATYYCQQYFSFPITFGQGTKVEIKRGGGGSIEGRSGGGGSEVQLVESGGGLVQPGGSLRLSCAASGFTISNGGIHWVRQAPGKGLEWVASIWPSGGYTSYADSVKGRFTISADTSKNTAYLQMNSLRAEDTAVYYCARFGVNYHGIMDYWGQGTLVTVSS
modifications: phage-displayed scFv specific for HLA-A2, 3E10
OD450 of binding to human HLA-A2 [4]: 1.3

B2: tetrazine-conjugated scFv specific for human HLA-A1: scFv specific for human HLA-A1 conjugated at C-terminal cysteine with Mal-PEG4-tetrazine (protein)
scFv: DIQMTQSPSTLSASVGDRVTITCRASQSISNWLAWYQQKPGKAPNLLIYKASSLESGVPSRFSGSGSGTEFTLTISSLQPDDFATYYCQQYHDYSVTFGAGTKVEIKRGGGGSGGGGSGGGGSEVQLLESGGGLVQPGGSQRLSCVASGVPFSNYAMNWVRQAPGKGLEWVSSISGGGDRTFYADSVKGRFTISRDNSKNTLYLQMNSLGAGDTAVYYCAKTYYDFWSGYSRHLNSWGQGSLVTVSSGGGGSGGGGSC
binding to recombinant HLA-A1 (ELISA) [5]: bound
